Target: T1, Prostaglandin G/H synthase 2 (Homo sapiens, UniProt P35354)
T1 sequence (P35354 whole entry): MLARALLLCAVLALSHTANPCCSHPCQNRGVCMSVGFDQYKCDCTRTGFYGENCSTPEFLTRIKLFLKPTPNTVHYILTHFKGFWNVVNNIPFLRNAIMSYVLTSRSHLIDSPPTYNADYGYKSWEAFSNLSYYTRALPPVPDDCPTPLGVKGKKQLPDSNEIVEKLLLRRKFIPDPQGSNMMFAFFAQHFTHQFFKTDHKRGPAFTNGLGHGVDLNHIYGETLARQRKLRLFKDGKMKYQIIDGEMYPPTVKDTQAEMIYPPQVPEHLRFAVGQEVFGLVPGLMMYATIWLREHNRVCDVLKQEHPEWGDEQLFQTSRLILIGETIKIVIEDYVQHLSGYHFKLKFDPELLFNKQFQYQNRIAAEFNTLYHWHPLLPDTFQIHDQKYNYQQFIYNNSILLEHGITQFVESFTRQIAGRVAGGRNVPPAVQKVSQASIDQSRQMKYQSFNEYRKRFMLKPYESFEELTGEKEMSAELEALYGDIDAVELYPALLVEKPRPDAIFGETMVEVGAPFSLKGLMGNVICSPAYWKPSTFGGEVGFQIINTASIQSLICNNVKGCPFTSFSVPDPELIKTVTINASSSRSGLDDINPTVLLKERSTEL
Experiment: Inhibition of recombinant human COX2 expressed in baculovirus infected Sf9 insect cells using arachidonic acid as substrate preincubated for 10 mins followed by substrate addition and measured after 10 mins by ELISA

IC50: 5 nM
SMILES: CCC(=O)NS(=O)(=O)c1ccc(-c2c(-c3ccccc3)noc2C)cc1 [PARECOXIB]

Reference: ChEMBL document CHEMBL4325858, “Quantitative and systems pharmacology 4. Network-based analysis of drug pleiotropy on coronary artery disease” (Eur J Med Chem, 2019)
